We go through 3 compounds from ChEMBL document CHEMBL3588744, “Structure-Based Optimization of Naphthyridones into Potent ATAD2 Bromodomain Inhibitors” (J Med Chem, 2015).

One series can be described thus: physchem. As to conditions: phosphate buffered saline, pH 7.4, solubility.
Series [1] addresses Bromodomain-containing protein 4 (Homo sapiens, UniProt O60885, Y390A).
In series [2] the target is T1, Bromodomain-containing protein 4 (Homo sapiens, UniProt O60885). The experiment in a line: Binding affinity to BRD4 containing BD1 bromodomains (unknown origin) by TR-FRET assay.
Series [3] deals with T2, Bromodomain testis-specific protein (Homo sapiens, UniProt Q58F21). The series can be described thus: Binding affinity to BRDt containing BD2 bromodomains (unknown origin) by TR-FRET assay. A general note: TR-FRET usually uses a lanthanide donor and a delayed reading to cut background.
Series [4] addresses T3, Bromodomain-containing protein 3 (Homo sapiens, UniProt Q15059). The experiment in a line: Binding affinity to BRD3 containing BD2 bromodomains (unknown origin) by TR-FRET assay.
For series [5], the target named is T3, Bromodomain-containing protein 3. The series can be described thus: Binding affinity to BRD3 containing BD1 bromodomains (unknown origin) by TR-FRET assay.
Series [6] is described as follows: Permeability across phosphatidyl choline membrane at pH 7.4 after 3 hrs by HPLC with UV detection method. In kind it is ADME. The settings on record: not told, read-out: permeability.
The nature of series [7]: Distribution coefficient, log D of the compound at pH 7.4 by chromatographic method. Type of series: physicochemical. The settings on record: octanol/water.
The target of series [8] is T1, Bromodomain-containing protein 4. The experiment in a line: Binding affinity to BRD4 containing BD2 bromodomains (unknown origin) by TR-FRET assay.
The target in series [9] is Bromodomain-containing protein 2 (Homo sapiens, UniProt P25440). The experiment in a line: Binding affinity to BRD2 in human HUT78 cells incubated for 45 mins by mass spectrometry based bromosphere chemoproteomic assay. Type of series: cell-based.
Chain of Bromodomain-containing protein 2 (P25440 whole entry): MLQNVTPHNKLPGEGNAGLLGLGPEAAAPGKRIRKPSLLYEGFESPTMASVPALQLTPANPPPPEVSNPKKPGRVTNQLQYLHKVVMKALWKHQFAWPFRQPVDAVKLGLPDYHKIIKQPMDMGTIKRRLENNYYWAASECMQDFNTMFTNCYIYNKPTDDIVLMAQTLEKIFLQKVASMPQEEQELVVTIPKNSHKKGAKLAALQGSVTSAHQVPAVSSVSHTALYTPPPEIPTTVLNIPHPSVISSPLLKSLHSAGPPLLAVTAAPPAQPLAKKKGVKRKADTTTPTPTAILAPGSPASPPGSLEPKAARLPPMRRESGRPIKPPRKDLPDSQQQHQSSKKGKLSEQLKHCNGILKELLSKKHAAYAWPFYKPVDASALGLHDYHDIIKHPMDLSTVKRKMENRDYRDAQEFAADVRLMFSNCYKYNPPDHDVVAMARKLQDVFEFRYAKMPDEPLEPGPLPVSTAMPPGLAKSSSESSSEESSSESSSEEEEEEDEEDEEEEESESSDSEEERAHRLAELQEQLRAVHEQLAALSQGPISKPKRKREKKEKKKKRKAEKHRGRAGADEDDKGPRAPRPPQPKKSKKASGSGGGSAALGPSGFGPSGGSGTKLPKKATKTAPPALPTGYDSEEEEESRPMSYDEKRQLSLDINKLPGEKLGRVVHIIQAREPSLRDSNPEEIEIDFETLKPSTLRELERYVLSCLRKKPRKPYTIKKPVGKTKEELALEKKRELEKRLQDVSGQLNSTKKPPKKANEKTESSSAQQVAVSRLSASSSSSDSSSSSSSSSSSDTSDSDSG
Series [10] addresses Transcription initiation factor TFIID subunit 1 (Homo sapiens, UniProt P21675). The experiment in a line: Binding affinity to TAF1 in human HUT78 cells incubated for 45 mins by mass spectrometry based bromosphere chemoproteomic assay. Type of series: cell-based.
For series [11], the target named is Nucleosome-remodeling factor subunit BPTF (Homo sapiens, UniProt Q12830). The series can be described thus: Binding affinity to BPTF in human HUT78 cells incubated for 45 mins by mass spectrometry based bromosphere chemoproteomic assay. Type of series: cell-based.
For a further series, the target named is T4, Peregrin (Homo sapiens, UniProt P55201).
T4 sequence (P55201 whole entry): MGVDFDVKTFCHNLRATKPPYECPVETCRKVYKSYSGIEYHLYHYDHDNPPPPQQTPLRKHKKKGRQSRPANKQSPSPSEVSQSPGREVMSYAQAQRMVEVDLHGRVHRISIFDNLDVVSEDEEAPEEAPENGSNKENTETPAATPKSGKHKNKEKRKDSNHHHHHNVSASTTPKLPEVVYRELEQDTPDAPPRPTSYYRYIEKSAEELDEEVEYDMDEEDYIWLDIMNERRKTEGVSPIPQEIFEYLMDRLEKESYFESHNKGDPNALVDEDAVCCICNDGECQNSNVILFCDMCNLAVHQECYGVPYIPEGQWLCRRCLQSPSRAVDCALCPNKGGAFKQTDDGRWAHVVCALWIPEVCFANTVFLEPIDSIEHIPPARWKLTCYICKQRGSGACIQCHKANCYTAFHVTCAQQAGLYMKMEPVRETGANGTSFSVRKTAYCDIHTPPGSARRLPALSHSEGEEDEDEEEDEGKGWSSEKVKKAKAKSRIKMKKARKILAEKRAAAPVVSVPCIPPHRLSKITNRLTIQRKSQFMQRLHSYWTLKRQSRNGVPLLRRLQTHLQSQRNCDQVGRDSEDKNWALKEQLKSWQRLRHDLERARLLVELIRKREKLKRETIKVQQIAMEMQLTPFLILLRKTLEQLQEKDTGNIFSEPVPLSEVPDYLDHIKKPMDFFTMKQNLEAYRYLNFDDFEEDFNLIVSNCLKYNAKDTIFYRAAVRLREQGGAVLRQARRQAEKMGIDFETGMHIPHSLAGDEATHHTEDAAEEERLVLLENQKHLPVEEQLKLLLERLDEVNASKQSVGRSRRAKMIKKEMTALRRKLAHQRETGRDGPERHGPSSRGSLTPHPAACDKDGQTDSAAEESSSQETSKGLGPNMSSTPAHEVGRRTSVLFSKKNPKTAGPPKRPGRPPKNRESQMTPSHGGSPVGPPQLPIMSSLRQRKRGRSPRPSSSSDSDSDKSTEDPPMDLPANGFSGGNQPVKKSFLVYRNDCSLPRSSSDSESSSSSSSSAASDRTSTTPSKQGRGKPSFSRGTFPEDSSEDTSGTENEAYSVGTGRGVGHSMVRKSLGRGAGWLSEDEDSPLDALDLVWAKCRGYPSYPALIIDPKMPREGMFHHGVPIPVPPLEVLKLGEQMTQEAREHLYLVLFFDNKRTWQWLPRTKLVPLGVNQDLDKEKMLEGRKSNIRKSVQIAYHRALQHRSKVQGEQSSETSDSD
The series can be described thus: Binding affinity to BRPF1 in human HUT78 cells incubated for 45 mins by mass spectrometry based bromosphere chemoproteomic assay. In kind it is cell-based.

The next series addresses Protein polybromo-1 (Homo sapiens, UniProt Q86U86). The series can be described thus: Binding affinity to PBRM1 in human HUT78 cells incubated for 45 mins by mass spectrometry based bromosphere chemoproteomic assay. Type of series: cell-based.
Series [12] concerns the target T5, Bromodomain-containing protein 9 (Homo sapiens, UniProt Q9H8M2).
T5 sequence (Q9H8M2 whole entry): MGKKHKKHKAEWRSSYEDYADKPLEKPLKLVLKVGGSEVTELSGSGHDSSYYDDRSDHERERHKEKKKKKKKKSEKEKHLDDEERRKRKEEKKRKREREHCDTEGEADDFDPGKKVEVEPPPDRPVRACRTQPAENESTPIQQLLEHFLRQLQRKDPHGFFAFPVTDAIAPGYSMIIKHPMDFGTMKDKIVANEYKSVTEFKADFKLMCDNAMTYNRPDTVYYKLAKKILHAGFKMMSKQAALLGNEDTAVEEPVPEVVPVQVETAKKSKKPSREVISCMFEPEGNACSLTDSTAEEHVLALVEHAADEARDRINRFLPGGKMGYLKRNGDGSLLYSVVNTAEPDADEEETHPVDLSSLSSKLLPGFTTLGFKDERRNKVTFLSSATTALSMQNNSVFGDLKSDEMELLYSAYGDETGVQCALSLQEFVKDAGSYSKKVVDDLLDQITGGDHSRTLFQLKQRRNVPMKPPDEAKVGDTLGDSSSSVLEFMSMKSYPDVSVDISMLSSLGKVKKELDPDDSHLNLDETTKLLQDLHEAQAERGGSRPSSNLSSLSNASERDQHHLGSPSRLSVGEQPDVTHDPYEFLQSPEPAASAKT
The series can be described thus: Binding affinity to BRD9 in human HUT78 cells incubated for 45 mins by mass spectrometry based bromosphere chemoproteomic assay. Type of series: cell-based.

Series [13] concerns the target Histone acetyltransferase KAT2A (Homo sapiens, UniProt Q92830). The experiment in a line: Binding affinity to KAT2A in human HUT78 cells incubated for 45 mins by mass spectrometry based bromosphere chemoproteomic assay. Type of series: cell-based.
Series [14] deals with Bromodomain adjacent to zinc finger domain protein 2A (Homo sapiens, UniProt Q9UIF9). The series can be described thus: Binding affinity to BAZ2A in human HUT78 cells incubated for 45 mins by mass spectrometry based bromosphere chemoproteomic assay. In kind it is cell-based.
Series [15] addresses T3, Bromodomain-containing protein 3. The experiment in a line: Binding affinity to BRD3 in human HUT78 cells incubated for 45 mins by mass spectrometry based bromosphere chemoproteomic assay. Type of series: cell-based.
The target of series [16] is Tyrosine-protein kinase BAZ1B (Homo sapiens, UniProt Q9UIG0). The experiment in a line: Binding affinity to BAZ1B in human HUT78 cells incubated for 45 mins by mass spectrometry based bromosphere chemoproteomic assay. Type of series: cell-based.
Series [17] concerns the target T2, Bromodomain testis-specific protein. The series can be described thus: Binding affinity to BRDT in human HUT78 cells incubated for 45 mins by mass spectrometry based bromosphere chemoproteomic assay. Type of series: cell-based.
Series [18] concerns the target Histone acetyltransferase KAT2B (Homo sapiens, UniProt Q92831). The series can be described thus: Binding affinity to KAT2B in human HUT78 cells incubated for 45 mins by mass spectrometry based bromosphere chemoproteomic assay. Type of series: cell-based.
The target of series [19] is Bromodomain-containing protein 7 (Homo sapiens, UniProt Q9NPI1). The series can be described thus: Binding affinity to BRD7 in human HUT78 cells incubated for 45 mins by mass spectrometry based bromosphere chemoproteomic assay. Type of series: cell-based.

Converted amounts (≈) assume the structure as drawn.

T3 sequence (Q15059 whole entry): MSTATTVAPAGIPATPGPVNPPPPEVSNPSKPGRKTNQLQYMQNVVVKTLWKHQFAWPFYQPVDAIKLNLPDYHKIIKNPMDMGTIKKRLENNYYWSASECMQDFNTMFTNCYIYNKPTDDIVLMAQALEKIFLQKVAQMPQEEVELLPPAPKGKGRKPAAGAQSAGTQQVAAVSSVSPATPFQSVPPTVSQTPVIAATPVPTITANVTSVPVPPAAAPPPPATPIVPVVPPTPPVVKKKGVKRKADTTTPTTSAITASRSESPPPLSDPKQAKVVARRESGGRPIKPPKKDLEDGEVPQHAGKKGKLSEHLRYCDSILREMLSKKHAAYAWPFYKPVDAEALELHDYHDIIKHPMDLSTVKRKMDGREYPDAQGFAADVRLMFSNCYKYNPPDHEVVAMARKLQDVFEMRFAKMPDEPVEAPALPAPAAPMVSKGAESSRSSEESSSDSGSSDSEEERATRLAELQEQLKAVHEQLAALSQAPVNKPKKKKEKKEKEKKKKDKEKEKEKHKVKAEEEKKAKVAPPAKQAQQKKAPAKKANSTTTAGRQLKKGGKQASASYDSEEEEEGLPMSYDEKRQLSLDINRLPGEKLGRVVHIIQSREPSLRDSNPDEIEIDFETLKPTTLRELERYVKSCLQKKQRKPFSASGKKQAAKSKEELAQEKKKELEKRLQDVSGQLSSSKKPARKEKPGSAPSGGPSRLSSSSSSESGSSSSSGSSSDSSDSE
Chain of Protein polybromo-1 (Q86U86 whole entry): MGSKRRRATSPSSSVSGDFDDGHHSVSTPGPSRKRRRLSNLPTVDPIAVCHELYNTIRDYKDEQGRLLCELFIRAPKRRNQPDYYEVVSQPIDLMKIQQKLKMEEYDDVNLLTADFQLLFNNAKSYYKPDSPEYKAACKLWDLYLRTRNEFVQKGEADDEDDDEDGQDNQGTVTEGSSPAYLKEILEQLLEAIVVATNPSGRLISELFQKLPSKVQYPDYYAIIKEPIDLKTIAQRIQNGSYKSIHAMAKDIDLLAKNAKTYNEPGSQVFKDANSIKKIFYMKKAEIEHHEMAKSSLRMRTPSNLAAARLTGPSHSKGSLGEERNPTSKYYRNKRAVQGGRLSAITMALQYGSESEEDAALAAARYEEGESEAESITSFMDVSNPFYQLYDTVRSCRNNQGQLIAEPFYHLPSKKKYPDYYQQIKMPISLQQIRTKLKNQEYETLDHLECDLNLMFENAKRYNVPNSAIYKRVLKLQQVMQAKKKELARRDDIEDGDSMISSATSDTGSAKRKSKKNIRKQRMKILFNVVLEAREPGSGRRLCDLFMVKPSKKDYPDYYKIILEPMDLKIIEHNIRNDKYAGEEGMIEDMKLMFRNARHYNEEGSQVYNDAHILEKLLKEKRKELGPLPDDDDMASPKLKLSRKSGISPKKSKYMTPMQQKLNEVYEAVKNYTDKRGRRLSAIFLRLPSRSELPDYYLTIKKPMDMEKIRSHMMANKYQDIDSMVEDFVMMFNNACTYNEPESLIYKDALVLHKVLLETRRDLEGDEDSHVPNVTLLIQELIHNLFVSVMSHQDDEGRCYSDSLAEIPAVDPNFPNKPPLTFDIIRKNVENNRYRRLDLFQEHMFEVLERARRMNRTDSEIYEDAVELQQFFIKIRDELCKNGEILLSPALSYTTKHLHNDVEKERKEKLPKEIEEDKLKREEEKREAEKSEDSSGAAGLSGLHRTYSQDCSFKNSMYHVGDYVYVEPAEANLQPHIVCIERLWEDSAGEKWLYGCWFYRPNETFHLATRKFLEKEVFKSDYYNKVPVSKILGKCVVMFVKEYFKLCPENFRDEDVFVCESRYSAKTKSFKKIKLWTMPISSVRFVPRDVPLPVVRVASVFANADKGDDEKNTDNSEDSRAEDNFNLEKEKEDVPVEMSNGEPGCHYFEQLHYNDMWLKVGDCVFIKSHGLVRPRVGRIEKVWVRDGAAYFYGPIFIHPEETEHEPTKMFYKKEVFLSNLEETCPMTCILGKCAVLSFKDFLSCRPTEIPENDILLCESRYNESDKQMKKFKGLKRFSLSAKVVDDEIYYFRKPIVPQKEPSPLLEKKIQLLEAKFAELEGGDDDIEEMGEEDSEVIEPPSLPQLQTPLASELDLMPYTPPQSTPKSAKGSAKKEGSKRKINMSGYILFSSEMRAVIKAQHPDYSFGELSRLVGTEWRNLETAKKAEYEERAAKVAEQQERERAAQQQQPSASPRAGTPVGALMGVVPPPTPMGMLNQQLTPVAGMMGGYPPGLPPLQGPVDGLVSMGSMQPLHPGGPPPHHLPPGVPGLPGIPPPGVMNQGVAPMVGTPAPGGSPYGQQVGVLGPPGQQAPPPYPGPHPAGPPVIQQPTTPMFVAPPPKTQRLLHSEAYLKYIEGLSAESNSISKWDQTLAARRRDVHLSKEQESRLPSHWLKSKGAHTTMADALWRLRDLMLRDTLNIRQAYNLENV
Chain of Transcription initiation factor TFIID subunit 1 (P21675 whole entry): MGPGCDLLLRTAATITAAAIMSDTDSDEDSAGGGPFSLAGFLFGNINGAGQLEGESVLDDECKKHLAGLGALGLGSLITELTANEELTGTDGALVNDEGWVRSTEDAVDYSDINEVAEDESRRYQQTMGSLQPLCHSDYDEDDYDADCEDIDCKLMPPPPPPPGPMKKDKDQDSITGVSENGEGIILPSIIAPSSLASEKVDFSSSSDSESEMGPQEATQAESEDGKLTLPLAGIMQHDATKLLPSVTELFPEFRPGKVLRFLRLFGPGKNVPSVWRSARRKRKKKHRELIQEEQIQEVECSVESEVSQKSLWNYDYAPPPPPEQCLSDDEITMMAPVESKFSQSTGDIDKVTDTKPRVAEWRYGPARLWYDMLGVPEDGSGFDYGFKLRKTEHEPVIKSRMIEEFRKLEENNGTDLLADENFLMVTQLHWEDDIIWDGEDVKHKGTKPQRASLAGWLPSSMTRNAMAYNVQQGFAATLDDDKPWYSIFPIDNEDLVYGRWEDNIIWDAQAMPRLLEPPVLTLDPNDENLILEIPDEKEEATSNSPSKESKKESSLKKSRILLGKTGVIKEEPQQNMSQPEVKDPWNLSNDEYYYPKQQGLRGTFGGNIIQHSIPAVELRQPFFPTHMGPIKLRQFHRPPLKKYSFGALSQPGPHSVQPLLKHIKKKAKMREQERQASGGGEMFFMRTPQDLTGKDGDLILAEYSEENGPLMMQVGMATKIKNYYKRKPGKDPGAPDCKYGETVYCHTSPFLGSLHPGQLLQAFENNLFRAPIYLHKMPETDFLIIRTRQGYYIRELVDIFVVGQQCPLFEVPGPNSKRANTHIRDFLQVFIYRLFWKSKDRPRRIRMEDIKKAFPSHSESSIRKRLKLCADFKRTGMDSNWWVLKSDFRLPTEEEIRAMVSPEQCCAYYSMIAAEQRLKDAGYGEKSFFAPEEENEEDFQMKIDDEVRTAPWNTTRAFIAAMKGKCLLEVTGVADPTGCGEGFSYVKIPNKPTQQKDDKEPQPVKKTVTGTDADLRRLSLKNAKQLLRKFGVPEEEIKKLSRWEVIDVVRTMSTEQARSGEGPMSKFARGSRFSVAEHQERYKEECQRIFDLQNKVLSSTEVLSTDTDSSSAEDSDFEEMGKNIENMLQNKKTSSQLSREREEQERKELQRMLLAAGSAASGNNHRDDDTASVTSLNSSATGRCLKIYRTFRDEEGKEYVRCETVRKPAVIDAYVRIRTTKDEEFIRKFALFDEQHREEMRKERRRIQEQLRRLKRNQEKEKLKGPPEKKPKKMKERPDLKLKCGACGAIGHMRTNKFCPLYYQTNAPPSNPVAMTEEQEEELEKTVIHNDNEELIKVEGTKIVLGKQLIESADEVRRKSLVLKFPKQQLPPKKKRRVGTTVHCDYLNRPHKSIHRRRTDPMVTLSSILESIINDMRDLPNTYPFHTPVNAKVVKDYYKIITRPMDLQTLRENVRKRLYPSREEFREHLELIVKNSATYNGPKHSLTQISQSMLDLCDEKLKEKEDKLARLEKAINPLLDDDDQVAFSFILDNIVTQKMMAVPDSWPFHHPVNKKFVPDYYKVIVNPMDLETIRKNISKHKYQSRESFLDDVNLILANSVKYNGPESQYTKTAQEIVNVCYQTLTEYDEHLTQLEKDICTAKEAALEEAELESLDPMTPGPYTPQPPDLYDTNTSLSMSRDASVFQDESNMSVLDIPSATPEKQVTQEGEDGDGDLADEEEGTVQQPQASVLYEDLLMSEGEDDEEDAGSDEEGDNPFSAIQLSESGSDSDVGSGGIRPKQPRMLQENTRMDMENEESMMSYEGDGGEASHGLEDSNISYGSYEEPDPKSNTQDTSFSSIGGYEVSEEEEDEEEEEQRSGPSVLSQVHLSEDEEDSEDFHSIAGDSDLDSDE
Description for physchem: Solubility of the compound in phosphate buffered saline at pH 7.4 after 1 hr by CLND method

`Cc1cncc(-c2cnc(N[C@@H]3CCNC[C@H]3OCC3CCS(=O)(=O)CC3)c3[nH]c(=O)c(C)cc23)c1` came in with a solubility (kinetic) at 1 h in the series “physchem” of 179 µM (≈ 91.6 µg/mL). The concentration for half-maximal inhibition (IC50) in [1] was 15.8 µM; in [2] it was 15.8 µM; in [3], over 50.1 µM; in series [4], over 50.1 µM; in [5] it was over 50.1 µM; in series [8], 5.01 µM. Moreover, the Papp at 3 h in series [6] is under 0.3 ×10⁻⁶ cm/s. In series [7], this compound came in with a chromatographic logD of 1.6.
Consider `Cc1cncc(-c2cnc(N[C@@H]3CCNC[C@H]3OCC3CCCCC3)c3[nH]c(=O)c(C)cc23)c1`, for which the Kd in [9] is 3.16 µM; in [10], 31.6 µM; in series [11], over 100 µM; on Peregrin it was over 100 µM; on Protein polybromo-1, over 100 µM; in series [12], 15.8 µM. For the same compound, the equilibrium dissociation constant (Kd) was over 100 µM in [13], over 100 µM in [14] and 2 µM in series [15]. This compound gave a kinetic solubility at 1 h in “physchem” of 170 µM (≈ 78.5 µg/mL). For the same compound, the Papp at 3 h in [6] amounted to 13.8 ×10⁻⁶ cm/s. Also, the chromatographic logD in series [7] is 4.
Take `Cc1cncc(-c2ccc(N[C@@H]3CCNC[C@H]3OCC3CCS(=O)(=O)CC3)c3[nH]c(=O)c(C)cc23)c1`: the Kd was 0.631 µM in series [9]; 1.58 µM in series [10]; over 100 µM in series [11]; 25.1 µM at Peregrin; 2.51 µM at Protein polybromo-1; 1.26 µM in [12]. In addition, the Kd in series [13] was over 100 µM; in [16] it was over 100 µM; in [17], 2 µM; in series [18], over 100 µM; in [19], 3.16 µM; in series [14], 3.98 µM. This compound also had a Kd in [15] of 1 µM.

In general, solubility (kinetic) refers to solubility judged after dilution from a stock solution rather than from solid. In general, IC50 refers to the concentration needed to halve the response being measured. Broadly, the chromatographic logD is lipophilicity estimated from chromatographic retention. By Kd is commonly meant the equilibrium constant for the complex coming apart.
